Publication PMC8266232, “Design, synthesis, and analysis of antiproliferative and apoptosis-inducing activities of nitrile derivatives containing a benzofuran scaffold: EGFR inhibition assay and molecular modelling study” (Journal of Enzyme Inhibition and Medicinal Chemistry, 2021)
Where two headings read alike, the source gives them in different places.

Experiments:
[1] = test system: HCT-116 cells (colorectal carcinoma); assay: MTT antiproliferative assay, HCT-116; format: cell-based, human; conditions: HCT-116, triplicate, read-out: In vitro cytotoxicity IC50, HCT-116
Protocol: (§1) The in vitro antiproliferative activity of all synthesised compounds was evaluated by an MTT assay according to the reported method[47]^,[48].
(§2) 2. Experimental procedure
(§3) 2.1. Antiproliferative screening
(§4) The in vitro antiproliferative activity of all synthesized compounds was evaluated by an MTT assay according to the reported method using five different human cancer cell lines, including […]
(§5) cervical carcinoma (HeLa), and human prostate cancer (PC-3). The cell lines were obtained from ATCC via a holding company for biological products and vaccines (VACSERA), Cairo, Egypt. The MTT assay is a colorimetric assay used for measuring the cellular growth based on the reduction of the yellow MTT to a purple formazan derivative by mitochondrial succinate dehydrogenase in viable cells. The color intensity of the formazan dye is correlated to the number of viable cells. The […]
(§6) IC50% values were calculated using dose response curves. The percentage of relative cell viability was calculated as (A570 of treated samples)/(A570 of untreated sample) × 100. The cytotoxic activity was defined as the concentration of the compound that caused 50% growth inhibition compared with the growth of an untreated cell. […]

[2] = test system: HePG2, HCT-116, MCF-7, PC3, HeLa cell lines; assay: MTT antiproliferative assay, IC50 range over the cancer cell line panel; format: cell-based; conditions: Homo sapiens
Protocol: as §1, §2, §3, §4, §5, §6

[3] = test system: PC3 cells (human prostate carcinoma); assay: MTT antiproliferative assay, PC3; format: cell-based; conditions: PC-3, PC3, triplicate, read-out: In vitro cytotoxicity IC50, PC3
Protocol: as §1, §2, §3, §4, §5, §6

[4] = test system: MCF-7 cells (human breast adenocarcinoma); assay: MTT antiproliferative assay, MCF-7; format: cell-based; conditions: MCF-7, triplicate, read-out: In vitro cytotoxicity IC50, MCF-7
Protocol: as §1, §2, §3, §4, §5, §6

[5] = test system: HeLa cells (cervical carcinoma); assay: MTT antiproliferative assay, HeLa; format: cell-based, human; conditions: triplicate, read-out: In vitro cytotoxicity IC50, HeLa
Protocol: as §1, §2, §3, §4, §5, §6

[6] = test system: HePG2 cells (hepatocellular carcinoma); assay: MTT antiproliferative assay, HePG2; format: cell-based, human; conditions: HePG2, triplicate, read-out: In vitro cytotoxicity IC50, HePG2
Protocol: as §1, §2, §3, §4, §5, §6

[7] = target: T1, EGFR TK (Homo sapiens, UniProt P00533); assay: EGFR TK inhibition assay (luminescent, Kinase-Glo MAX); format: biochemical
T1 construct: add 20 μl of diluted EGFR enzyme and incubate at 30°C for 40
Protocol: 2.2. Epidermal growth factor inhibition assay
In vitro luminescent EGFR tyrosine kinase assay, using Kinase-Glo® MAX as a detection reagent using DP‐Glo™ reagent that measures the adenosine diphosphate (ADP) formed from a kinase reaction, were performed; this luminescent signal positively correlates with ADP amount and kinase activity. In 17 μl of distilled water, 6 μl of Kinase assay buffer and 1 μl ATP and 1 μl PTK substrate were mixed (master mixture). In every well, mix 20 μl of the master mixture and 5 μl of Inhibitor solution (Test Inhibitor) for positive control, and use 5 μl of the same solution without inhibitor (Inhibitor buffer) as the blank solution; add 20 μl of diluted EGFR enzyme and incubate at 30°C for 40

[8] = test system: WI38 normal cell; assay: MTT cytotoxicity on normal fibroblast cells; format: cell-based; conditions: Homo sapiens, WI-38; MTT assay, non tumour normal cell WI38
[9] = test system: human caspase-3 (active) in HCT-116 cells; assay: Caspase-3 ELISA in HCT-116 cells; format: cell-based
Protocol: Caspases are critical mediators of programmed cell death, that is, apoptosis. Caspase-3 is important in processes involving dissociation of the cell and the formation of the apoptotic element; therefore, it is regarded as one of the best biochemical hallmarks of apoptosis. […] The concentration of active caspase-3 was measured using the ELISA technique. In addition, the fluorescence density produced by the tested compounds is illustrated in Figure 4. […] The level of caspase-3 increased 5.7-fold compared to the control. Moreover, a considerable 7.3-fold increase in the caspase-3 level was detected following the treatment of the MCF-7 cells with compound 11. The bioluminescent intensities of caspase-3 indicated the apoptotic activity of compounds 3 and 11.
Afterward, measure luminescence using the
tested in triplicates.[36-38].
active caspase-3 [49]. […] The tested
Subsequently, 100 µL of an
incubated for 30 min at room temperature.
chromogen. […] The intensity of the resulting colored

[10] = test system: HCT-116 cells; assay: Annexin V-FITC/PI apoptosis assay, HCT-116; conditions: HCT-116, 10 µM, 24 h; for Late apoptosis: control 0.11; for Necrosis: control 0.12; for Early apoptosis: control 0.16; for Apoptosis, Total: control 0.39
Protocol: (§7) A comparison was made to the control (DMSO) and reference (gefitinib).
(§8) The cell line samples were analysed using FACSCalibur flow cytometer.
(§9) with PI. The cells were compared with the control, which was treated with DMSO.
Analysis of cellular apoptosis
(§10) concentration, respectively, and then incubated for 24 h. Following incubation, 1 –5 × 10^5 cells were
(§11) harvested and suspended in 500 µ L of the binding buffer, 5 µ L of annexin V-FITC, and 5 µL of PI.
(§12) annexin V-FITC conjugate is specially engineered to produce an enhanced fluorescence signal and
(§13) photostability. The annexin V-FITC kit included annexin V-FITC for detecting apoptosis as well as PI
(§14) for detecting necrosis. Thus, apoptosis and necrosis could be effectively differentiated. Detection and
(§15) analysis of the annexin V-FITC binding by flow cytometry was conducted using a FITC signal
(§16) detector (typically FL1). PI staining was evaluated by a phycoerythrin emission signal detector

[11] = test system: HCT-116 cells; assay: Cell cycle analysis by PI flow cytometry, HCT-116; conditions: HCT-116, 10 µM, 24 h; for %Pre/G1: control 0.39, '% Apoptosis' in Figure 5A; for %G2/M: control 4.19; for %S: control 25.21; for %G0/G1: control 70.21
Protocol: as §7
(§17) Cell cycle analysis and induction of apoptosis
(§18) Flow cytometry analysis of the cell cycle distribution
(§19) incubation period, the cells were collected, centrifuged, and ﬁxed with ice-cold ethanol (70%). The cells were subsequently treated with a buffer containing RNAse A and 0.1% Triton X-100, and stained
(§20) with PI. The cells were compared with the control, which was treated with DMSO. The DNA content
was measured by flow cytometry [50-52].

[12] = test system: MCF-7 cells; assay: Annexin V-FITC/PI apoptosis assay, MCF-7; conditions: MCF-7, 10 µM, 24 h
Protocol: as §7, §8, §9
Analysis of cellular apoptosis
as §10, §11, §12, §13, §14, §15, §16

[13] = test system: MCF-7 cells; assay: Cell cycle analysis by PI flow cytometry, MCF-7; conditions: MCF-7, 10 µM, 24 h
Protocol: as §7, §17, §18, §19, §20
was measured by flow cytometry [50-52].

[14] = Homo sapiens, HCT-116, MTT assay
[15] = HePG2, HCT-116, MCF-7, PC3, HeLa, read-out: IC50 range over all tested cancer cell lines
[16] = four cell lines, without HCT-116, read-out: IC50 range against HePG2, MCF-7, PC3, and HeLa cell lines

T1 sequence (P00533 25-1210): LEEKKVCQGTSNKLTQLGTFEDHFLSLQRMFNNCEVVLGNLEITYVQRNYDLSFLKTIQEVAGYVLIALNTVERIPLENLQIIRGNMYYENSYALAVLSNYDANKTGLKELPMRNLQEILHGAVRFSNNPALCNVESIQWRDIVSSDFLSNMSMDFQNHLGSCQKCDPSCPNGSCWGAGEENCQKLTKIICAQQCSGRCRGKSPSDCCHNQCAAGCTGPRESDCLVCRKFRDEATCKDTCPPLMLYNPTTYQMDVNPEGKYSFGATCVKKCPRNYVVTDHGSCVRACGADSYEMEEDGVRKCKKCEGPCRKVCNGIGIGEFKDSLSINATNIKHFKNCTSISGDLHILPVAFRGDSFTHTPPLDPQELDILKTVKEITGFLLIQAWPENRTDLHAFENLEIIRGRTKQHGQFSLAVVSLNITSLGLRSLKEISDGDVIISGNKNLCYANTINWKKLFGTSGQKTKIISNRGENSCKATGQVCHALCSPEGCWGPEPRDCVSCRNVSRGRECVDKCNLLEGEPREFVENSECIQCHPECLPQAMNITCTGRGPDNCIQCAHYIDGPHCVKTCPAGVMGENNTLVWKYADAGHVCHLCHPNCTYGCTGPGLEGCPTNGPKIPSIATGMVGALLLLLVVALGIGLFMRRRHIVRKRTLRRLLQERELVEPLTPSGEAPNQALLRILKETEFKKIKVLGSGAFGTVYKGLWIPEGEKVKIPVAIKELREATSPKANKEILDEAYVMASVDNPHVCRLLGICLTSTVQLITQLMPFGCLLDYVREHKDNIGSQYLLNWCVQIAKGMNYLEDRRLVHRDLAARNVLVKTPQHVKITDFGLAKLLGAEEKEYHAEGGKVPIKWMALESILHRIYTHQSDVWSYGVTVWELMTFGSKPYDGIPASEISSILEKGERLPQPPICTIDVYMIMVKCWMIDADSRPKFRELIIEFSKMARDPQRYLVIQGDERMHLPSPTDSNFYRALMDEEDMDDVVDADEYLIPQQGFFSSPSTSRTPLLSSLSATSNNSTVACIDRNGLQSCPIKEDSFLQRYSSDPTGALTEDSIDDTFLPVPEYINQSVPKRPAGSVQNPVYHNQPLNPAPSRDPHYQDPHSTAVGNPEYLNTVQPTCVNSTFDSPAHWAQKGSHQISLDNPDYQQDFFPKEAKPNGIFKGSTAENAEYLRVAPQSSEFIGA

| Structure (SMILES) | IC50 [7] [nM] | melting point [°C] | IC50 [1, 14] [µM] | IC50 ([1]; MTT assay) [µM] | IC50 [3] [µM] | IC50 ([4]; Homo sapiens, MCF7, MTT assay) [µM] | IC50 ([5]; Homo sapiens) [µM] | IC50 ([6]; Homo sapiens, HepG2, MTT assay) [µM] | IC50 [8] [µM] | also measured |
| --- | --- | --- | --- | --- | --- | --- | --- | --- | --- | --- |
| CN(C)C/C=C/C(=O)Nc1cc2c(Nc3ccc(F)c(Cl)c3)ncnc2cc1O[C@H]1CCOC1 [Afatinib, reference compound] | – | – | 11.2 | 11.2 ± 1.11 | 7.6 ± 0.6 | 7.23 | 6.3 ± 0.69 | 5.53 | – | IC50 [2, 15]: 5.5 to 11.2 µM; IC50 ([4]; MTT assay): 7.2 ± 0.5 µM; IC50 ([6]; MTT assay): 5.5 ± 0.24 µM |
| CC(=C(C#N)C#N)c1cc2ccccc2o1 [Compound 2, 2-(1-(benzofuran-2-yl)ethylidene)malononitrile] | 1090 | 140 to 142 | 8.81 to 13.8 | 8.81 ± 0.7 | 26.8 ± 2.2 | 8.36 to 17.3 | 39 ± 2.4 | 16.1 to 23.7 | 86.5 ± 4.7 | IC50 ([4]; MTT assay): 8.36 ± 0.9 µM; IC50 ([6]; MTT assay): 16.1 ± 1.4 µM |
| CN(C)/C=C/C(=C(C#N)C#N)c1cc2ccccc2o1 [Compound 3, (E)-2-(1-(benzofuran-2-yl)-3-(dimethylamino)allylidene)malononitrile] | 930 | – | 10.8 ± 1 | – | 44.5 ± 3.5 | 27.4 ± 1.8 | 69 ± 3.9 | 40 ± 2.5 | 63.1 ± 3.43 | Caspase-3 Conc. ([9]; 24 h treatment, ELISA, control 63.51): 363.4 pg/mL; Caspase-3 level, Fold ([9]; compared to the control): 5.7 fold; Late apoptosis [10]: 5.79%; Necrosis [10]: 1.32%; Early apoptosis [10]: 5.95%; Apoptosis, Total [10]: 13.06%; %Pre/G1 [11]: 13.06%; %G2/M [11]: 12.62%; %S [11]: 20.91%; %G0/G1 [11]: 53.41% |
| CCNc1nccc(-c2cc3ccccc3o2)c1C#N [Compound 4, 4-(Benzofuran-2-yl)-2-(ethylamino)nicotinonitrile] | – | 155 to 158 | 72.4 ± 3.8 | – | 14.3 ± 1.3 | 55 ± 3.2 | 21 | 58.8 ± 3.3 | – | IC50 [2, 16]: 14.3 to 58.8 µM; IC50 [5]: 21.1 ± 1.6 µM |
| CCCNc1nccc(-c2cc3ccccc3o2)c1C#N [Compound 5, 4-(Benzofuran-2-yl)-2-(propylamino)nicotinonitrile] | – | 118 to 120 | 94.1 ± 5.1 | – | 94.6 ± 4.9 | > 100 | 75.2 ± 4.8 | 83.6 ± 4.4 | – | IC50 [2, 16]: 75.2 to 100 µM |
| COc1cccc2c1C(=O)c1c(O)c3c(c(O)c1C2=O)C[C@@](O)(C(=O)CO)C[C@@H]3O[C@H]1C[C@H](N)[C@H](O)[C@H](C)O1 [DOX, Doxorubicin, reference compound] | – | – | – | – | – | – | – | 4.5 ± 0.2 | 55.3 ± 3 | – |
| COc1cc2ncnc(Nc3ccc(F)c(Cl)c3)c2cc1OCCCN1CCOCC1 [Gefitinib, reference compound] | – | – | – | – | – | – | – | – | – | Necrosis ([12]; control 0.15): 1.64%; Early apoptosis ([12]; control 0.16): 4.28%; Late apoptosis ([12]; control 0.24): 7.63%; Apoptosis, Total ([12]; control 0.55): 13.55%; Late apoptosis [10]: 7.47%; Necrosis [10]: 1.8%; Early apoptosis [10]: 7.22%; Apoptosis, Total [10]: 16.49%; %Pre/G1 ([13]; control 0.55, '% Apoptosis' in Figure 6A): 13.55%; %G2/M ([13]; control 3.66): 23.63%; %S ([13]; control 27.37): 16.51%; %G0/G1 ([13]; control 66.42): 46.31%; %Pre/G1 [11]: 16.49%; %G2/M [11]: 21.71%; %S [11]: 13.34%; %G0/G1 [11]: 48.37% |

The next lines start with results.

| IC50 [7] [nM] | melting point [°C] | Structure (SMILES) | IC50 [1, 14] [µM] | IC50 ([1]; MTT assay) [µM] | IC50 [3] [µM] | IC50 ([4]; Homo sapiens, MCF7, MTT assay) [µM] | IC50 ([5]; Homo sapiens) [µM] | IC50 ([6]; Homo sapiens, HepG2, MTT assay) [µM] | IC50 [8] [µM] | also measured |
| --- | --- | --- | --- | --- | --- | --- | --- | --- | --- | --- |
| – | 112 to 114 | CCCCNc1nccc(-c2cc3ccccc3o2)c1C#N [Compound 6, 4-(Benzofuran-2-yl)-2-(butylamino)nicotinonitrile] | 56.4 ± 3.2 | – | > 100 | 81.6 ± 4 | 91.9 ± 5.1 | 79 ± 4.2 | 204 ± 11.1 | IC50 [2, 16]: 75.2 to 100 µM |
| – | 164 to 166 | N#Cc1c(-c2cc3ccccc3o2)ccnc1NCCO [Compound 7, 4-(Benzofuran-2-yl)-2-(2-hydroxyethylamino)nicotinonitrile] | 38.6 | 38.6 ± 2 | 70.1 ± 3.8 | 40.8 ± 2.5 | 73.3 ± 4.2 | 53.4 ± 2.9 | 59.5 ± 3.23 | IC50 [2, 15]: 38.6 to 73.3 µM |
| 4240 | 124 to 126 | N#Cc1c(-c2cc3ccccc3o2)ccnc1NCCCO [Compound 8, 4-(Benzofuran-2-yl)-2-(3-hydroxypropylamino)nicotinonitrile] | 8.81 to 13.8 | 13.8 ± 1.3 | 36.7 ± 2.8 | – | 58.8 ± 3.7 | 16.1 to 23.7 | 151 ± 8.22 | IC50 [2, 15]: 13.8 to 58.8 µM; IC50 ([6]; MTT assay): 23.7 ± 1.8 µM |
| – | 186 to 188 | N#Cc1c(-c2cc3ccccc3o2)ccnc1NC1CCCCC1 [Compound 9, 4-(Benzofuran-2-yl)-2-(cyclohexylamino)nicotinonitrile] | 29.5 ± 1.8 | – | 51.1 ± 3.6 | 35.2 ± 2.2 | 73.6 ± 4.1 | 44.7 ± 2.7 | – | – |
| 1120 | 180 to 182 | N#Cc1c(-c2cc3ccccc3o2)ccnc1NCc1ccccc1 [Compound 10, 4-(Benzofuran-2-yl)-2-(benzylamino)nicotinonitrile] | 27.5 ± 1.5 | – | 30.9 ± 2.6 | 19.7 ± 1.6 | 46.2 ± 3 | 34.3 ± 2.1 | – | – |
| – | 156 to 158 | COc1ccc(CCNc2nccc(-c3cc4ccccc4o3)c2C#N)cc1 [Compound 12, 4-(Benzofuran-2-yl)-2-(4-methoxyphenethylamino)nicotinonitrile] | 49.7 ± 2.9 | – | 93.5 ± 4.4 | 61.5 ± 3.5 | 85.4 ± 4.7 | 70.5 ± 3.8 | 76.3 ± 4.14 | – |
